In publication PMC6001238, “Iterative Chemical Engineering of Vancomycin Leads to Novel Vancomycin Analogs With a High in Vitro Therapeutic Index” (Frontiers in Microbiology, 2018):
≈ marks a conversion by molar mass, not a printed value.

Assays:
[1] = tested on: E. faecalis VSE 1; experiment: MIC, broth microdilution, vancomycin-sensitive E. faecalis (VSE 1); assay type: cell-based, Enterococcus faecalis; details: for MIC: Enterococcus faecalis VSE 1 (vancomycin-sensitive), read-out: MIC; for MIC-fold improvement vs. vancomycin: VSE 1, ratio of MIC of vancomycin and MIC of analogue
Experimental: (§1) The minimum inhibitory concentration (MIC) was determined using the broth microdilution method according to the antimicrobial susceptibility testing standards of the clinical and laboratory standards institute ([Clinical and Laboratory Standards Institute [CLSI], 2012]). Ultrapure water and non-inoculated broth were used as controls. In one case, a final concentration of 10 μM vancomycin was included with the vancomycin analog or control antibiotic.

[2] = tested on: E. faecalis VRE 6; experiment: MIC, broth microdilution, vancomycin-resistant E. faecalis VRE 6 (VanA); assay type: cell-based, Enterococcus faecalis; details: for MIC: Enterococcus faecalis VRE 6 (vancomycin-resistant), read-out: MIC; for MIC-fold improvement vs. vancomycin: VRE 6, ratio of MIC of vancomycin and MIC of analogue
Experimental: as §1

[3] = tested on: E. faecalis VRE 53; experiment: MIC, broth microdilution, vancomycin-resistant E. faecalis VRE 53 (VanA); assay type: cell-based, Enterococcus faecalis; details: for MIC: Enterococcus faecalis VRE 53 (vancomycin-resistant), read-out: MIC; for MIC-fold improvement vs. vancomycin: VRE 53, ratio of MIC of vancomycin and MIC of analogue
Experimental: as §1

[4] = tested on: E. faecalis VRE 29; experiment: MIC, broth microdilution, vancomycin-resistant E. faecalis VRE 29 (VanA); assay type: cell-based, Enterococcus faecalis; details: for MIC: Enterococcus faecalis VRE 29 (vancomycin-resistant), read-out: MIC; for MIC-fold improvement vs. vancomycin: VRE 29, ratio of MIC of vancomycin and MIC of analogue
Experimental: as §1

[5] = tested on: E. faecalis VRE 37; experiment: MIC, broth microdilution, vancomycin-resistant E. faecalis VRE 37 (VanA); assay type: cell-based, Enterococcus faecalis; details: for MIC: Enterococcus faecalis VRE 37 (vancomycin-resistant), read-out: MIC; for MIC-fold improvement vs. vancomycin: VRE 37, ratio of MIC of vancomycin and MIC of analogue
Experimental: as §1

[6] = tested on: Murine leukemia (L1210) cells; experiment: Cytostatic activity, L1210 cell proliferation; assay type: cell-based; details: mean ± SD of three experiments; highest concentration tested 250 µM; 2 days; read-out: Toxicity (IC50) L1210
Experimental: (§2) Murine leukemia (L1210), human T-lymphocyte (CEM) and the human cervix carcinoma (HeLa) cell line were suspended at 300,000–500,000 cells/mL of culture medium, and 100 μL of a cell suspension was added to 100 μL of an appropriate dilution of the test compounds in wells of 96-well microtiter plates. After incubation at 37°C for 2 (L1210), 3 (CEM), or 4 (HeLa) days, the cell number was determined using a Coulter counter. The IC50 was defined per cell type as the compound concentration required to inhibit cell proliferation by 50% compared to the negative control ([Glowacka et al., 2017]).

[7] = tested on: human T-lymphocyte (CEM) cells; experiment: Cytostatic activity, CEM cell proliferation; assay type: cell-based; details: mean ± SD of three experiments; highest concentration tested 250 µM; 3 days; read-out: Toxicity (IC50) CEM
Experimental: as §2

[8] = tested on: human cervix carcinoma (HeLa) cells; experiment: Cytostatic activity, HeLa cell proliferation; assay type: cell-based; details: mean ± SD of three experiments; highest concentration tested 250 µM; 4 days; read-out: Toxicity (IC50) HeLa
Experimental: as §2

[9] = tested on: L1210, CEM and HeLa cell lines; experiment: Cytostatic activity, average or summary over L1210, CEM and HeLa; assay type: cell-based; details: average of L1210, CEM and HeLa; read-out: Toxicity (IC50) Average
Experimental: as §2

[10] = tested on: S. aureus VSSA (ATCC 6538); experiment: MIC, broth microdilution, vancomycin-sensitive S. aureus (VSSA/MSSA, ATCC 6538); assay type: cell-based, Staphylococcus aureus; details: for MIC: Staphylococcus aureus VSSA, read-out: MIC; for MIC-fold improvement vs. vancomycin: VSSA, ratio of MIC of vancomycin and MIC of analogue
Experimental: as §1

[11] = tested on: S. aureus VISA/HIP5827; experiment: MIC, broth microdilution, vancomycin-intermediate S. aureus VISA HIP5827; assay type: cell-based, Staphylococcus aureus; details: for MIC: Staphylococcus aureus VISA/HIP5827, read-out: MIC; for MIC-fold improvement vs. vancomycin: VISA/HIP5827, ratio of MIC of vancomycin and MIC of analogue
Experimental: as §1

[12] = tested on: S. aureus VRSA; experiment: MIC, broth microdilution, vancomycin-resistant S. aureus (VRSA); assay type: cell-based, Staphylococcus aureus; details: for MIC: Staphylococcus aureus VRSA, read-out: MIC; for MIC-fold improvement vs. vancomycin: VRSA, ratio of MIC of vancomycin and MIC of analogue
Experimental: as §1

[13] = tested on: MRSA KS2; experiment: MIC, broth microdilution, MRSA KS2; assay type: cell-based, Staphylococcus aureus; details: for MIC-fold improvement vs. vancomycin: MRSA KS2, ratio of MIC of vancomycin and MIC of analogue; for MIC: Staphylococcus aureus MRSA KS2, read-out: MIC
Experimental: as §1

[14] = tested on: MRSA KS6; experiment: MIC, broth microdilution, MRSA KS6; assay type: cell-based, Staphylococcus aureus; details: for MIC-fold improvement vs. vancomycin: MRSA KS6, ratio of MIC of vancomycin and MIC of analogue; for MIC: Staphylococcus aureus MRSA KS6, read-out: MIC
Experimental: as §1

[15] = tested on: MRSA KS89; experiment: MIC, broth microdilution, MRSA KS89; assay type: cell-based, Staphylococcus aureus; details: for MIC-fold improvement vs. vancomycin: MRSA KS8, ratio of MIC of vancomycin and MIC of analogue; for MIC: Staphylococcus aureus MRSA KS8, read-out: MIC
Experimental: as §1

[16] = tested on: MRSA KS1; experiment: MIC, broth microdilution, MRSA KS1; assay type: cell-based, Staphylococcus aureus; details: for MIC-fold improvement vs. vancomycin: MRSA KS1, ratio of MIC of vancomycin and MIC of analogue; for MIC: Staphylococcus aureus MRSA KS1, read-out: MIC
Experimental: as §1

| Compound | MIC [1] [µM] | MIC-fold improvement vs. vancomycin [1] | MIC [2] [µM] | MIC-fold improvement vs. vancomycin [2] | MIC [3] [µM] | MIC-fold improvement vs. vancomycin [3] | MIC [4] [µM] | MIC-fold improvement vs. vancomycin [4] | MIC [5] [µM] | IC50 [6] [µM] | IC50 [7] [µM] | IC50 [8] [µM] | IC50 [9] [µM] | MIC [10] [µM] | MIC-fold improvement vs. vancomycin [10] | MIC [11] [µM] | MIC-fold improvement vs. vancomycin [11] | MIC [12] [µM] | MIC-fold improvement vs. vancomycin [12] | MIC-fold improvement vs. vancomycin [13] | also measured |
| --- | --- | --- | --- | --- | --- | --- | --- | --- | --- | --- | --- | --- | --- | --- | --- | --- | --- | --- | --- | --- | --- |
| CN[C@H](CC(C)C)C(=O)N[C@H]1C(=O)N[C@@H](CC(N)=O)C(=O)N[C@H]2C(=O)N[C@H]3C(=O)N[C@H](C(=O)N[C@H](C(=O)NCC(=O)Nc4c(C)cc(C)cc4C)c4cc(O)cc(O)c4-c4cc3ccc4O)[C@H](O)c3ccc(c(Cl)c3)Oc3cc2cc(c3O[C@@H]2O[C@H](CO)[C@@H](O)[C@H](O)[C@H]2O[C@H]2C[C@](C)(N)[C@H](O)[C@H](C)O2)Oc2ccc(cc2Cl)[C@H]1O [Vanc-9] | 0.78 (≈ 1.27 µg/mL) | 2 | 6.25 (≈ 10.1 µg/mL) | 32 | 25 (≈ 40.6 µg/mL) | 16 | 25 (≈ 40.6 µg/mL) | 16 | 25 (≈ 40.6 µg/mL) | > 250 | 240 ± 14 | 83 ± 5 | 191 | 0.78 (≈ 1.27 µg/mL) | 1 | 1.56 (≈ 2.53 µg/mL) | 4 | 25 (≈ 40.6 µg/mL) | 4 | 1 | MIC [13]: 0.78 µM (≈ 1.27 µg/mL); MIC-fold improvement vs. vancomycin [14]: 1; MIC [14]: 0.78 µM (≈ 1.27 µg/mL); MIC-fold improvement vs. vancomycin [15]: 1; MIC [15]: 0.78 µM (≈ 1.27 µg/mL); MIC-fold improvement vs. vancomycin [16]: 1; MIC [16]: 0.78 µM (≈ 1.27 µg/mL) |
| CN[C@H](CC(C)C)C(=O)N[C@H]1C(=O)N[C@@H](CC(N)=O)C(=O)N[C@H]2C(=O)N[C@H]3C(=O)N[C@H](C(=O)N[C@H](C(=O)NCC(=O)Nc4cccc(F)c4)c4cc(O)cc(O)c4-c4cc3ccc4O)[C@H](O)c3ccc(c(Cl)c3)Oc3cc2cc(c3O[C@@H]2O[C@H](CO)[C@@H](O)[C@H](O)[C@H]2O[C@H]2C[C@](C)(N)[C@H](O)[C@H](C)O2)Oc2ccc(cc2Cl)[C@H]1O [Vanc-10] | 0.78 (≈ 1.25 µg/mL) | 2 | 6.25 (≈ 10 µg/mL) | 32 | 12.5 (≈ 20 µg/mL) | 32 | 12.5 (≈ 20 µg/mL) | 32 | 12.5 (≈ 20 µg/mL) | > 250 | > 250 | 214 ± 51 | 238 | 0.78 (≈ 1.25 µg/mL) | 1 | 0.78 (≈ 1.25 µg/mL) | 8 | 12.5 (≈ 20 µg/mL) | 8 | 2 | MIC-fold improvement vs. vancomycin [5]: 64; MIC [13]: 0.39 µM (≈ 0.624 µg/mL); MIC-fold improvement vs. vancomycin [14]: 1; MIC [14]: 0.78 µM (≈ 1.25 µg/mL); MIC-fold improvement vs. vancomycin [15]: 2; MIC [15]: 0.39 µM (≈ 0.624 µg/mL); MIC-fold improvement vs. vancomycin [16]: 2; MIC [16]: 0.39 µM (≈ 0.624 µg/mL) |
| CN[C@H](CC(C)C)C(=O)N[C@H]1C(=O)N[C@@H](CC(N)=O)C(=O)N[C@H]2C(=O)N[C@H]3C(=O)N[C@H](C(=O)N[C@H](C(=O)NCC(=O)Nc4cc(C)cc(C)c4)c4cc(O)cc(O)c4-c4cc3ccc4O)[C@H](O)c3ccc(c(Cl)c3)Oc3cc2cc(c3O[C@@H]2O[C@H](CO)[C@@H](O)[C@H](O)[C@H]2O[C@H]2C[C@](C)(N)[C@H](O)[C@H](C)O2)Oc2ccc(cc2Cl)[C@H]1O [Vanc-11] | 0.39 (≈ 0.628 µg/mL) | 4 | 3.13 (≈ 5.04 µg/mL) | 64 | 12.5 (≈ 20.1 µg/mL) | 32 | 6.25 (≈ 10.1 µg/mL) | 32 | 12.5 (≈ 20.1 µg/mL) | > 250 | 196 ± 15 | 87 ± 9 | 178 | 0.78 (≈ 1.26 µg/mL) | 1 | 0.78 (≈ 1.26 µg/mL) | 8 | 12.5 (≈ 20.1 µg/mL) | 8 | 1 | MIC-fold improvement vs. vancomycin [5]: 64; MIC [13]: 0.78 µM (≈ 1.26 µg/mL); MIC-fold improvement vs. vancomycin [14]: 2; MIC [14]: 0.39 µM (≈ 0.628 µg/mL); MIC-fold improvement vs. vancomycin [15]: 2; MIC [15]: 0.39 µM (≈ 0.628 µg/mL); MIC-fold improvement vs. vancomycin [16]: 1; MIC [16]: 0.78 µM (≈ 1.26 µg/mL) |
